The record followed here is ChEMBL document CHEMBL3259796, “Synthesis and in-vivo hypolipidemic activity of some novel substituted phenyl isoxazol phenoxy acetic acid derivatives” (Bioorg Med Chem Lett, 2014).

Series [1] can be described thus: Retardation factor of the compound using ethyl acetate/n-hexane at 1:1 ratio. The class given is physicochemical.
Series [2] in a line: Retardation factor of the compound using chloroform/methanol at 4:1 ratio. Type of series: physicochemical.
The test system of series [3] is Rattus norvegicus. Description: Hypolipidemic activity in triton WR-1339 Wistar rat assessed as total cholesterol at 250 mg/kg, po for 7 days (reference value: 209 +/- 1.45 mg/dl). The class given is functional.
Series [4] has as its system Rattus norvegicus. The series is described as follows: Hypolipidemic activity in triton WR-1339 Wistar rat assessed as triglyceride at 250 mg/kg, po for 7 days (reference value: 190 +/- 1.98 mg/dl). Type of series: functional.
For series [5], the system named is Rattus norvegicus. Description: Hypolipidemic activity in triton WR-1339 Wistar rat assessed as atherogenic index at 250 mg/kg, po for 7 days (reference value: 10.18 no unit). Type of series: functional.
The test system of series [6] is Rattus norvegicus. The series is described as follows: Hypolipidemic activity in triton WR-1339 Wistar rat assessed as increase in protection at 250 mg/kg, po for 7 days. The class given is functional.
In series [7] the test system is Rattus norvegicus. Description: Hypolipidemic activity in triton WR-1339 Wistar rat assessed as very low-density lipoprotein at 250 mg/kg, po for 7 days (reference value: 38 +/- 1.80 mg/dl). The class given is functional.
Series [8] concerns Rattus norvegicus. Description: Hypolipidemic activity in triton WR-1339 Wistar rat assessed as high-density lipoprotein at 250 mg/kg, po for 7 days (reference value: 17 +/- 1.70 mg/dl). Type of series: functional.
Series [9] relates to Rattus norvegicus. The series is described as follows: Hypolipidemic activity in triton WR-1339 Wistar rat assessed as low-density lipoprotein at 250 mg/kg, po for 7 days (reference value: 154 +/- 1.82 mg/dl). The class given is functional.

For `COc1cc(-c2cc(-c3ccc(O)cc3)on2)cc(OC)c1OC`, the Rf in series [1] is 0.63.

On to `COc1cc(/C=C/C(=O)c2ccc(O)cc2)cc(OC)c1OC`, for which the Rf in series [2] was 0.48.

On to `Oc1ccc(-c2cc(-c3c(Cl)cccc3Cl)no2)cc1`, for which, in series [1], the Rf is reported as 0.58.

Regarding `COc1ccccc1-c1cc(-c2ccc(O)cc2)on1`, the Rf in [1] is 0.59.

In the case of `O=C(O)COc1ccc(-c2cc(-c3c(Cl)cccc3Cl)no2)cc1`, the Activity in the series on Rattus norvegicus [3] stood at 90 mg/dL; with Rattus norvegicus [4] it was 113.5 mg/dL; with Rattus norvegicus [6], 84.77%; in the series on Rattus norvegicus [7], 22.7 mg/dL; in the series on Rattus norvegicus [8], 44.5 mg/dL; with Rattus norvegicus [9], 22.8 mg/dL. For the same compound, in the series with Rattus norvegicus [5], the AI is on record as 1.55. The Rf in [1] is on record as 0.5.

In the case of `COc1cc(-c2cc(-c3ccccc3)on2)ccc1OCC(=O)O`, the Activity was found to be 94 mg/dL in the series with Rattus norvegicus [3]; 115 mg/dL in the series on Rattus norvegicus [4]; 85.27% with Rattus norvegicus [6]; 23 mg/dL with Rattus norvegicus [7]; 46 mg/dL in the series on Rattus norvegicus [8]; 25 mg/dL in the series with Rattus norvegicus [9]. For the same compound, the AI in the series with Rattus norvegicus [5] turned out to be 1.5. In addition, the Rf in [1] was found to be 0.56.

As to `COc1ccccc1/C=C/C(=O)c1ccc(O)cc1`, the Rf in [2] was found to be 0.51.

With `Oc1ccc(-c2cc(-c3ccco3)no2)cc1`, the Rf in [1] is given as 0.61.

As for `Oc1ccccc1-c1cc(-c2ccccc2)on1`, in series [1], the Rf is 0.6.

As for `O=C(/C=C/c1ccc(Cl)cc1)c1ccc(O)cc1`, the Rf in series [2] is reported as 0.56.

Consider `O=C(O)COc1ccc(-c2cc(-c3ccco3)no2)cc1`, for which the Activity in the series on Rattus norvegicus [3] worked out at 87 mg/dL; in the series with Rattus norvegicus [4], 113 mg/dL; in the series on Rattus norvegicus [6] it was 83.4%; in the series on Rattus norvegicus [7], 22.6 mg/dL; with Rattus norvegicus [8], 42 mg/dL; with Rattus norvegicus [9] it was 22.4 mg/dL. Besides, the AI in the series on Rattus norvegicus [5] is on record as 1.69. Besides, the Rf in [1] stood at 0.46.

In the case of `O=C(/C=C/c1c(Cl)cccc1Cl)c1ccc(O)cc1`, the Rf in [2] was 0.52.

On to `COc1cc(/C=C/C(=O)c2ccccc2)ccc1O`, for which the Rf in series [2] was 0.54.

Take `O=C(O)COc1ccc(-c2cc(-c3ccccc3Cl)no2)cc1`: the Activity in the series with Rattus norvegicus [3] was 148.5 mg/dL; with Rattus norvegicus [4], 110 mg/dL; in the series on Rattus norvegicus [6], 82.81%; in the series on Rattus norvegicus [7], 22 mg/dL; in the series on Rattus norvegicus [8] it was 40 mg/dL; in the series with Rattus norvegicus [9], 86.5 mg/dL. Moreover, the AI in the series on Rattus norvegicus [5] came to 1.75. In addition, in [1], the Rf was found to be 0.48.

`Oc1ccc(-c2cc(-c3ccc(Cl)cc3)no2)cc1`: the Rf in [1] came to 0.6.

Consider `Oc1ccc(-c2cc(-c3ccccc3)no2)cc1`, for which the Rf in series [1] amounted to 0.56.

With `O=C(/C=C/c1ccco1)c1ccc(O)cc1`, the Rf in [2] amounted to 0.61.

Consider `O=C(O)COc1ccc(-c2cc(-c3ccc(F)cc3)on2)cc1`, for which the Activity in the series with Rattus norvegicus [3] is 81 mg/dL; in the series on Rattus norvegicus [4], 105.5 mg/dL; with Rattus norvegicus [6] it was 85.95%; in the series with Rattus norvegicus [7], 21.1 mg/dL; in the series with Rattus norvegicus [8] it was 43.5 mg/dL; with Rattus norvegicus [9], 16.4 mg/dL. In addition, the AI with Rattus norvegicus [5] is 1.43. Moreover, the Rf in series [1] came to 0.52.

Take `O=C(/C=C/c1ccccc1O)c1ccccc1`: in series [2], the Rf is 0.49.

Consider `O=C(/C=C/c1ccc(O)cc1)c1ccc(F)cc1`, for which the Rf in series [2] amounted to 0.62.

On to `COc1cc(-c2cc(-c3ccccc3)on2)ccc1O`, for which, in series [1], the Rf is reported as 0.57.

For the compound `Oc1ccc(-c2cc(-c3ccc(F)cc3)on2)cc1`, the Rf in [1] turned out to be 0.5.

Consider `O=C(O)COc1ccccc1-c1cc(-c2ccccc2)on1`, for which the Activity in the series on Rattus norvegicus [3] came to 91 mg/dL; with Rattus norvegicus [4] it was 123.5 mg/dL; in the series on Rattus norvegicus [6] it was 81.24%; with Rattus norvegicus [7], 25.2 mg/dL; in the series with Rattus norvegicus [8], 42.5 mg/dL; in the series on Rattus norvegicus [9], 23.3 mg/dL. Besides, the AI in the series on Rattus norvegicus [5] came out at 1.91. Further, the Rf in series [1] was 0.52.

As to `COc1ccccc1-c1cc(-c2ccc(OCC(=O)O)cc2)on1`, the Activity in the series on Rattus norvegicus [3] was determined as 77.5 mg/dL; with Rattus norvegicus [4] it was 117.5 mg/dL; with Rattus norvegicus [6], 83.89%; with Rattus norvegicus [7], 23.5 mg/dL; with Rattus norvegicus [8], 44.5 mg/dL; in the series on Rattus norvegicus [9] it was 10.5 mg/dL. Further, the AI with Rattus norvegicus [5] is 1.64. The Rf in series [1] was 0.45.

Turning to `O=C(/C=C/c1ccccc1Cl)c1ccc(O)cc1`, in series [2], the Rf worked out at 0.6.

In the case of `O=C(O)COc1ccc(-c2cc(-c3ccccc3)no2)cc1`, the Activity in the series on Rattus norvegicus [3] was found to be 88 mg/dL; in the series on Rattus norvegicus [4], 132 mg/dL; in the series on Rattus norvegicus [6], 77.8%; with Rattus norvegicus [7], 26.4 mg/dL; in the series on Rattus norvegicus [8], 40.5 mg/dL; in the series with Rattus norvegicus [9], 11.1 mg/dL. For the same compound, in the series on Rattus norvegicus [5], the AI is 2.26. In addition, the Rf in [1] is on record as 0.56.

With `O=C(/C=C/c1ccccc1)c1ccc(O)cc1` [4'-HYDROXYCHALCONE], in [2], the Rf amounted to 0.53.

As for `CC(C)OC(=O)C(C)(C)Oc1ccc(C(=O)c2ccc(Cl)cc2)cc1` [FENOFIBRATE], the Activity is 116.5 mg/dL in the series with Rattus norvegicus [3]; 119 mg/dL with Rattus norvegicus [4]; 83.6% with Rattus norvegicus [6]; 23.8 mg/dL in the series on Rattus norvegicus [7]; 44.5 mg/dL with Rattus norvegicus [8]; 48.2 mg/dL with Rattus norvegicus [9].

With `Oc1ccc(-c2cc(-c3ccccc3Cl)no2)cc1`, the Rf in series [1] is recorded as 0.6.

In the case of `COc1cc(-c2cc(-c3ccc(OCC(=O)O)cc3)on2)cc(OC)c1OC`, the Activity in the series on Rattus norvegicus [3] was found to be 82.5 mg/dL; in the series on Rattus norvegicus [4], 125 mg/dL; with Rattus norvegicus [6], 79.47%; in the series with Rattus norvegicus [7], 25.5 mg/dL; with Rattus norvegicus [8], 40.5 mg/dL; in the series with Rattus norvegicus [9], 29 mg/dL. Moreover, in the series with Rattus norvegicus [5], the AI was found to be 2.09. In addition, the Rf in series [1] stood at 0.51.

`O=C(O)COc1ccc(-c2cc(-c3ccc(Cl)cc3)no2)cc1`: the Activity with Rattus norvegicus [3] is 83.5 mg/dL; in the series on Rattus norvegicus [4], 131.5 mg/dL; in the series with Rattus norvegicus [6] it was 78.29%; in the series with Rattus norvegicus [7], 26.3 mg/dL; in the series on Rattus norvegicus [8] it was 41 mg/dL; with Rattus norvegicus [9], 16.2 mg/dL. Besides, in the series with Rattus norvegicus [5], the AI was found to be 2.21. Moreover, the Rf in series [1] stood at 0.53.
